The subject of assay [1] is Salmonella typhimurium TA l00. Kind of assay: Ames test (preincubation method), inactivation of mutagenicity of MNNG, without S9. In kind it is cell-based. As to the method: (§1) One of the methods for determining carcinogenicity that have recently been established is the Salmonella test (also known as the Ames test) that uses the requirement for histidine as an evaluation index (Ames, B.N. et al.: Mutation Res., Vol. 3l, 347, l975). […] Therefore, the present inventors chose to use the Ames test as a means for screening various compounds to discover cancer control substances.
(§2) • (i) Method: The preincubation method shown in Sugimura & Nagao: Chemical Mutagens, Vol. 6, page 4l, l98l was used. • (ii) Microorganism: Histidine requiring Salmonella typhimurium strains TA l00 and TA 98 (hereunder TA l00 and St TA 98) were used. • (iii) Preparation of samples • a) MNNG: To MNNG samples (l µg/plate), coenzyme A was added in amounts of 0.0l µM, 0.l µM and l.0 µM/plate. • b) Benzo[a]pyrene: To benzo[a]pyrene samples (l0 µg/plate), coenzyme A was added in amounts of 0.0009, 0.009 and 0.09µM/plate. • (iv) Measuring mutagenicity
(§3) To l00 µl of each of the samples prepared in (iii) a), 500 µl of l00 mM sodium phosphate buffer (pH 7.4) and l00 µl of a culture of St TA l00 were added. To l00 µl of each of the samples prepared in (iii) b), 500 µl of S9 mix (rat liver homogenate) and l00 µl of a culture of TA 98 were added. […] After incubation at 37°C for 48 hours, the number of colonies on the plates was counted as revertants. […]
(The Ames test detects mutagens through reverse mutation in bacteria.)

The test system of assay [2] is Salmonella typhimurium TA 98. The assay can be described thus: Ames test (preincubation method), inactivation of mutagenicity of benzo[a]pyrene, with S9 mix (rat liver homogenate). In kind it is cell-based. The procedure:
as §1, §2, §3

Assay [3] has as its system St TA l00 or St TA 98 strain. Kind of assay: Ames test (preincubation method), inactivation of mutagenicity of carcinogens/mutagens by pantothenates, without S9. Format: cell-based, Salmonella typhimurium. The procedure:
as §2
• (i) Method: See Example l. • (ii) Microorganism: See Example l. • (iii) Preparation of samples • a) The carcinogenic or mutagenic substances used in Example 3 and their concentrations are listed in Table 5. [formula] • b) Adding pantothenates (Na and Ca salts) Pantothenates were added to each of the carcinogenic or mutagenic samples in amounts of 0, 0.005, 0.05, and 5.0 µM/plate. • (iv) Measuring mutagenicity To l00 µl of each of the samples prepared in (iii) a), 500 µl of l00 mM sodium phosphate buffer (pH 7.4) was added. Thereafter, l00 µl of a culture of St TA l00 or St TA 98 strain was added as indicated in Table 6. [formula] The respective mixtures were shaken for 20 minutes at 37°C. After adding 2.5 ml of a soft agar solution, the mixtures were spread on minimum glucose agar plates which had been supplemented with 0.l µM/plate of histidine for causing several […] of the cells. After incubation at 37°C for 48 hours, the number of colonies on the plates was counted as revertants.

For the compound `CC(C)(COP(=O)(O)OP(=O)(O)OC[C@H]1O[C@@H](n2cnc3c(N)ncnc32)[C@H](O)[C@@H]1OP(=O)(O)O)[C@@H](O)C(=O)NCCC(=O)NCCS` [Coenzyme A, coenzyme A], in assay [1] (150 mols of coenzyme A added to 1 mol of MNNG), the “inhibition of the mutagenicity of MNNG” value was “completely”. In addition, the “inactivation of the mutagenicity of benzo[a]pyrene” value in assay [2] (10 mols of coenzyme A added to 1 mol of benzo[a]pyrene) was “about 90%”.

Consider `Cc1ncc(COP(=O)(O)O)c(C=O)c1O` [Pyridoxal-5′-phosphoric acid, pyridoxal-5′-phosphoric acid], for which, in assay [1] (150 mols of compound added to 1 mol of MNNG), the “inhibition of the mutagenicity of MNNG” value is “about 50%”. The “inactivation of the mutagenicity of benzo[a]pyrene” value in assay [2] (25 mols of compound added to 1 mol of benzo[a]pyrene) is “about 80%”.

Regarding `CC(C)(CO)[C@@H](O)C(=O)NCCC(=O)[O-].[Na+]` [Sodium pantothenate, sodium pantothenate], the “inactivation of the mutagenicity of methylglyoxal” value in assay [3] (18 mols of sodium pantothenate added to 1 mol of methylglyoxal) was 77%. Further, the “inactivation of the mutagenicity of adriamycin” value in assay [3] (2273 mols of sodium pantothenate added to 1 mol of adriamycin) was 59%. Also, the “inactivation of the mutagenicity of AF-2” value in assay [3] (6250 mols of sodium pantothenate added to 1 mol of AF-2) is 58%.

In the case of calcium pantothenate, the “inactivation of the mutagenicity of MNU” value in assay [3] (6 mols of calcium pantothenate added to 1 mol of MNU) is given as “completely”. For the same compound, in assay [3] (73 mols of calcium pantothenate added to 1 mol of MNNG), the “inactivation of the mutagenicity of MNNG” value was found to be 48%.

(Values after patent EP0248151A1, “Pantothenic acid as an antimutagenic agent” (SUNTORY LIMITED, priority 1983, dated 1984).)
